Reference: PMC10488055, “Investigation of Potential cGMP-Specific PDE V and Aminopeptidase N Inhibitors of Allium ampeloprasum L. and Its Bioactive Components: Kinetic and Molecular Docking Studies” (International Journal of Molecular Sciences, 2023)
Read-outs that look alike come from different tables or passages of the source.

Columns and labels:
APN [1] = target: T1, APN (Homo sapiens, UniProt P15144); test: Kinetic assay (Lineweaver–Burk) on APN; type: biochemical; settings: for Ki: APN
T1 construct: purchased Sigma-Aldrich
Procedure: (§1) Lineweaver–Burk plots were employed to analyze the inhibition of the target enzyme. These plots were represented as 1/velocity (1/V) versus 1/substrate concentration (1/(S)) in the presence or absence of each sample (non-treated (black circle), 10 μg or 1 mM (blue circle), 20 μg or 2 mM (green circle), 50 μg or 5 mM (orange circle), and 100 μg or 10 mM (purple circle)) as an inhibitor against APN.
(§2) These reactions were conducted in a total volume of 80 μL. by a previously described method. The Michaelis–Menten constant (Km) and maximal velocity (Vmax) were calculated using the x and y intercepts, respectively. […] Additionally, the Kik and Kiv inhibition constants were calculated using previously described methods.

aminopeptidase N (APN) = target: T2, aminopeptidase N (APN) (Homo sapiens, UniProt P15144); test: Aminopeptidase N (APN) enzyme activity assay with L-p-NA substrate; type: biochemical
T2 construct: purchased Sigma-Aldrich
Procedure: Figure 2 Effects of AAE and AAE-derived compounds on APN activity. […] The reaction was started by adding 20 μL enzyme solution (1 mU) and incubated for 60 min at 37 °C. The absorbance of samples were measured at 405 nm to determine the formation of p-nitroaniline. Each value is the mean ± SD of triplicate measurements. * p < 0.05 and ** p < 0.01, compared to each control group (Con). Con, control group treated enzyme only.
The activity of APN was determined according to Melzig et al.. Briefly, the enzyme substrate L-p-NA (2 mM) was dissolved in 50 mM N-(2-hydroxyethyl)piperazine-N’-2ethansulfonic acid (HEPES) buffer (pH 7.4) containing 154 mM NaCl. […] The reaction was started by adding 20 μL enzyme solution (approximately 1 mU in HEPES-buffer) and incubated for 60 min at 37 °C. The samples were measured spectrophotometrically at 405 nm to determine the formation of p-nitroanilmne. APN inhibitory activity (%) = ([Absorbance control without sample − Absorbance control with sample]/Absorbance control without sample) × 100

APN [2] = target: T1, APN; set-up: method as in doi:10.1101/2021.02.26.433103; settings: interacts with ALA474, ASP473, and SER476; cited from earlier work
PDE5 = PDE5 (Homo sapiens, UniProt O76074); test: Kinetic assay (Lineweaver–Burk) on PDE5; type: biochemical; set-up: Vmax / Kcat: unit of the concentration uncertain;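 on Kcat: pure compound doses in mM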
Procedure: as §1, with “(1/[S])” for “(1/(S))”, “(orange” for “(blue”, “(silver” for “(green”, “(yellow” for “(orange”, “(blue” for “(purple”, “PDE5.” for “APN.”
as §2

[3] = APN treated with compound 10 mM
[4] = PDE5 treated with compound 1 (unit uncertain)
[5] = PDE5 treated with compound 2 (unit uncertain)
[6] = PDE5 treated with compound 5 (unit uncertain)
[7] = PDE5 treated with compound 10 (unit uncertain)

T1 sequence (P15144 whole entry, species assumed): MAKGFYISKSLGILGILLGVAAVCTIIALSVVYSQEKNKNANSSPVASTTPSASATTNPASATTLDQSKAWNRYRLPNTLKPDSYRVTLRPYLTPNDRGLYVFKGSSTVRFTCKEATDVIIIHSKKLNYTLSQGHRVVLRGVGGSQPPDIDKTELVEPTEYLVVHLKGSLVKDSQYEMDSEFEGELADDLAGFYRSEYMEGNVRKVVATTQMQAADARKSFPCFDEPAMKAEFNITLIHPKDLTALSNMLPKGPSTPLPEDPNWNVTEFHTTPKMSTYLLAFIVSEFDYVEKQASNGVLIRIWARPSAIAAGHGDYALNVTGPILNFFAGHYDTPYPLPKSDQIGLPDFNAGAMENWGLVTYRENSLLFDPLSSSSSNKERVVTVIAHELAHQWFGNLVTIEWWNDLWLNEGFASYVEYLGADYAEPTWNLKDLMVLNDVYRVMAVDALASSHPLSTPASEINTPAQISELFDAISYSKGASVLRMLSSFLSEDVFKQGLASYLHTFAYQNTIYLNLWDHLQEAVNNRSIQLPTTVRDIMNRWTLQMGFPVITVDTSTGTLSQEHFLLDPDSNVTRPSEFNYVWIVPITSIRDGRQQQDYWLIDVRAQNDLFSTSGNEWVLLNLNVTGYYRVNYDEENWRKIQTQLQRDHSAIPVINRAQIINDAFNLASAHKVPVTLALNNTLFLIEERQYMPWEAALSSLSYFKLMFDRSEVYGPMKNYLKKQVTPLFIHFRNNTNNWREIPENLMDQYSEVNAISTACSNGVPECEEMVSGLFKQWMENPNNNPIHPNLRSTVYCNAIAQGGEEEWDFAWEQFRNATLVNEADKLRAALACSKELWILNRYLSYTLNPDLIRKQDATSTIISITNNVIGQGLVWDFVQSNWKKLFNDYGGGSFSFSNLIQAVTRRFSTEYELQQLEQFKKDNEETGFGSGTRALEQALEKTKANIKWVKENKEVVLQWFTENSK
T2 sequence (P15144 whole entry, species assumed): as above

## O=c1c(O)c(-c2ccc(O)c(O)c2)oc2cc(O)cc(O)c12 [QUE, quercetin]
APN [1]; APN treated with compound 1 mM
  Kcat: 368.1 ± 6.2 s⁻¹
  Vmax: 0.297 ± 0.005 mU/min
APN [1]; APN treated with compound 2 mM
  Kcat: 316.6 ± 7.4 s⁻¹
  Vmax: 0.255 ± 0.006 mU/min
APN [1]; APN treated with compound 5 mM
  Kcat: 244.1 ± 3.7 s⁻¹
  Vmax: 0.197 ± 0.003 mU/min
APN [1]; [3]
  Kcat: 212.3 ± 2.5 s⁻¹
  Vmax: 0.171 ± 0.002 mU/min
APN [1]; calculated by method of ref 27, read-out: Kiv
  Ki: 11.8 mM
APN [1]; read-out: Ki
  Ki: 13.2 mM
APN [1]; from Kik/Kiv ratio, new decision system [27]
  inhibition type against APN: noncompetitive-type
APN [1]; highest concentration, non-treated 0.316 mU/min = 1.0-fold
  Vmax value of APN, fold of non-treated group: 0.54 fold
Aminopeptidase N (APN)
  IC50: > 10 mM
Aminopeptidase N (APN); at the highest concentration
  inhibition of APN in in vitro enzyme assay: 33%
Aminopeptidase N (APN); treatment with 10 mM, without sample 0.38 U
  enzymatic activity of APN: 0.25 ± 0.01 U
APN [2]
  interaction energy with APN (docking): -6.9 kcal/mol
PDE5; PDE5, ratio according to Yang et al. [27]
  Kik/Kiv: 9.4
PDE5; [4]
  Kcat: 5473 ± 234 k s^−1
  Vmax: 0.724 ± 0.031 mU/min
PDE5; [5]
  Kcat: 5187 ± 166 k s^−1
  Vmax: 0.686 ± 0.022 mU/min
PDE5; [6]
  Kcat: 2893 ± 60 k s^−1
  Vmax: 0.383 ± 0.008 mU/min
PDE5; [7]
  Kcat: 1478 ± 38 k s^−1
  Vmax: 0.195 ± 0.005 mU/min
PDE5; from changes of Km and 1/Vmax (Lineweaver–Burk), putative decision system [27]
  inhibition type against PDE5: uncompetitive-type
PDE5; highest concentration
  Km value of PDE5, fold of non-treated: 0.69 fold
PDE5; highest concentration, non-treated 1.039 mU/min = 1.0-fold
  Vmax value of PDE5, fold of non-treated group: 0.19 fold
